Among the test systems are SF-268 CNS; KM12 colon; HCC-2998 colon; SR leukemia; MALME-3M melanoma; DMS 114 small cell lung; RPMI-8226 leukemia; SNB-78 CNS; CAKI-1 renal; MCF7 breast.
What all share (test): growth of human tumour cells (NCI), 48 h

Where “and” joins values, the source holds several entries; their conditions need not be identical. Identical values can stand only once.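 1) Cells in 96-well plates. 2) Compound, 48 h, 5 concentrations. 3) Linear interpolation between surrounding doses. 4) Unreached endpoint = highest concentration. GI50 is the concentration that inhibits growth by half. TGI: total growth inhibition.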

Regarding `O=C1C2C(C(=O)N1O)N(Cc1ccccc1)C(=O)N2Cc1ccccc1` (centres undefined), the TGI in the experiment on SF-268 CNS, with KM12 colon, with HCC-2998 colon, in the experiment on SR leukemia, in the experiment on MALME-3M melanoma and with DMS 114 small cell lung was above 100 µM throughout. Besides, the TGI in the experiment with RPMI-8226 leukemia, in the experiment on SNB-78 CNS and in the experiment with CAKI-1 renal was above 100 µM in each case.
For the compound `CC[C@@H]1C[C@@H]2CN3CCc4c([nH]c5ccc(OC)cc45)C(COC(=O)c4ccc(OC)c(OC)c4)(C2)C13`, the TGI was above 100 µM in the experiment with SF-268 CNS; above 100 µM in the experiment with KM12 colon; 55.4 µM in the experiment on HCC-2998 colon; 78.4 µM with SR leukemia; 71.8 µM in the experiment with DMS 114 small cell lung; 86.4 µM with RPMI-8226 leukemia. The TGI with SNB-78 CNS and in the experiment with CAKI-1 renal was above 100 µM each time.
`O=C(Nc1ccc(Cl)c(C(F)(F)F)c1)C(=O)C(C(=O)/C=C/c1ccccc1)C1OC(=O)c2ccccc21` (centres undefined): the TGI in the experiment with SF-268 CNS, in the experiment on KM12 colon, in the experiment with HCC-2998 colon, with SR leukemia, in the experiment on MALME-3M melanoma and in the experiment on DMS 114 small cell lung was above 100 µM each time. Besides, the TGI in the experiment with RPMI-8226 leukemia, with SNB-78 CNS and with CAKI-1 renal was above 100 µM throughout.
Regarding `CN/N=C(/Cc1occc(=O)c1O)C(=O)Nc1ccc(C)c(C)c1`, the TGI in the experiment on SF-268 CNS, in the experiment on KM12 colon, in the experiment on HCC-2998 colon, in the experiment on SR leukemia, in the experiment on MALME-3M melanoma and in the experiment on DMS 114 small cell lung was above 100 µM each time. For the same compound, the TGI in the experiment on RPMI-8226 leukemia, in the experiment with SNB-78 CNS and in the experiment on CAKI-1 renal was above 100 µM each time.
On to `CC(C)(C)NNC(=O)/C(=C/c1ccc(Oc2ccc(Cl)c(Cl)c2)cc1)NC(=O)c1ccccc1`, for which the TGI was above 100 µM with SF-268 CNS; above 100 µM with KM12 colon; above 100 µM in the experiment with HCC-2998 colon; 35.9 µM in the experiment on SR leukemia; above 100 µM with MALME-3M melanoma; 35.9 µM in the experiment with DMS 114 small cell lung. Also, the TGI with RPMI-8226 leukemia was 45.1 µM; in the experiment with SNB-78 CNS it was above 100 µM; in the experiment with CAKI-1 renal, above 100 µM.
As for `Cc1[nH]c(=O)[nH]c(=O)c1N(CCF)CCCl`, the GI50 was 140 µM in the experiment on MCF7 breast; 192 µM and 329 µM with SF-268 CNS; 280 µM and 508 µM in the experiment with KM12 colon; 220 µM with HCC-2998 colon; 219 µM and 393 µM with MALME-3M melanoma; 148 µM in the experiment with DMS 114 small cell lung. In addition, the GI50 in the experiment with RPMI-8226 leukemia was 161 µM and 190 µM and 122 µM; with SNB-78 CNS, 435 µM; in the experiment on CAKI-1 renal, 137 µM. The TGI in the experiment on MCF7 breast was 502 µM and > 250 µM and 851 µM; with SF-268 CNS it was 651 µM and 1120 µM and 1100 µM; with KM12 colon, 824 µM and 1330 µM and 719 µM; in the experiment on HCC-2998 colon, 606 µM and 668 µM and 751 µM; with SR leukemia, 1870 µM; in the experiment on MALME-3M melanoma, 410 µM and 757 µM and 721 µM. The TGI was 371 µM and 771 µM and 436 µM in the experiment with DMS 114 small cell lung; 515 µM and 838 µM and 1270 µM with RPMI-8226 leukemia; 1000 µM and 1400 µM and 1210 µM with SNB-78 CNS; 634 µM and 711 µM in the experiment on CAKI-1 renal.
As for `CC(=O)N(C)OC(=O)CC(=O)c1ccccc1`, the TGI in the experiment with SF-268 CNS, in the experiment with KM12 colon, with HCC-2998 colon, with SR leukemia, in the experiment with MALME-3M melanoma and in the experiment on DMS 114 small cell lung was above 100 µM each time. The TGI in the experiment with RPMI-8226 leukemia, in the experiment with SNB-78 CNS and in the experiment on CAKI-1 renal was above 100 µM in each case.
For `CCN1C(=O)C/C(=C\C(C)=O)Nc2ccccc21`, the GI50 in the experiment with MCF7 breast and in the experiment on RPMI-8226 leukemia was above 100 µM in each case. Further, the TGI with MCF7 breast, in the experiment on SF-268 CNS, in the experiment on KM12 colon, in the experiment on HCC-2998 colon, in the experiment with SR leukemia and in the experiment with MALME-3M melanoma was above 100 µM in each case. Further, the TGI with DMS 114 small cell lung, in the experiment on RPMI-8226 leukemia, in the experiment with SNB-78 CNS and in the experiment with CAKI-1 renal was above 100 µM in each case.
As to `CCC/C(=N\NC(=S)N1CCN(c2ccccn2)CC1)c1ccccn1`, the TGI in the experiment with MCF7 breast is 1.41 µM; with SF-268 CNS it was > 10 µM and 1.85 µM; in the experiment on KM12 colon, 0.64 µM and 1.52 µM; in the experiment with HCC-2998 colon, 1.64 µM and 1.59 µM; in the experiment with SR leukemia, 0.117 µM; in the experiment with MALME-3M melanoma, 0.565 µM and 2.07 µM. For the same compound, the TGI in the experiment with DMS 114 small cell lung is 0.111 µM; in the experiment on RPMI-8226 leukemia, 0.024 µM and 0.0128 µM; in the experiment with SNB-78 CNS it was > 10 µM and 4.24 µM; with CAKI-1 renal it was > 5.37 µM and 1.92 µM. The GI50 was 0.0462 µM with HCC-2998 colon, 1.08 µM in the experiment on SNB-78 CNS and 0.0143 µM in the experiment with CAKI-1 renal.
Turning to `O=C(O)c1ccc(S(=O)(=O)c2ccccc2)c([N+](=O)[O-])c1`, the TGI in the experiment with SF-268 CNS, in the experiment on KM12 colon, with HCC-2998 colon, in the experiment with SR leukemia, with MALME-3M melanoma and in the experiment with DMS 114 small cell lung was above 100 µM throughout. In addition, the TGI in the experiment with RPMI-8226 leukemia, with SNB-78 CNS and with CAKI-1 renal was above 100 µM throughout.
For the compound `CN(C)CCCCN1CCc2c(n(C)c3ccccc23)C1=O`, the TGI is > 59.9 µM and 64.7 µM with MCF7 breast; > 76.3 µM and 57.6 µM with SF-268 CNS; above 92.7 µM with KM12 colon; 64.3 µM and 30.3 µM in the experiment on HCC-2998 colon; > 100 µM and 35.9 µM in the experiment on SR leukemia; 43.6 µM and 36.3 µM with MALME-3M melanoma. In addition, the TGI was above 100 µM in the experiment on DMS 114 small cell lung; 93.2 µM and 64.7 µM in the experiment on RPMI-8226 leukemia; above 100 µM with SNB-78 CNS; > 73.4 µM and 65.3 µM in the experiment with CAKI-1 renal. Also, the GI50 with HCC-2998 colon is 39.7 µM and 15.9 µM; in the experiment on SR leukemia, 53.3 µM and 12.7 µM; in the experiment on RPMI-8226 leukemia, 61.7 µM and 29.3 µM.

The values above are taken from PubChem BioAssay (NCI).
